According to the supplement of paper PMC10307832:

Assays:
Assay in all cases: relative viability (nuclei count vs DMSO), 5 days (fraction); higher = more cells survive
[1] = compound: C1COCCN1C2=NC(=NC3=C2OC4=C3C=CC=N4)C5=CC(=CC=C5)NC(=O)C6=CN=C(C=C6)N + CC(=O)Nc1cccc(-n2c(=O)n(C3CC3)c(=O)c3c(Nc4ccc(I)cc4F)n(C)c(=O)c(C)c32)c1 [Trametinib] (partner 0.02 µM)
Method in brief: (§1)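 Lung cancer cell lines in 1536-well plates got either a single drug or a fixed anchor-drug dose together with five library-drug doses (not always all listed) in √10 steps, by pin tool, on the day after seeding. Nuclei were counted after 5 days, and relative viability is the treated-to-vehicle ratio of nuclei counts. Values are medians of duplicate plates.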

SGI-1776 + Phenformin = compound: CN1CCC(CNc2ccc3ncc(-c4cccc(OC(F)(F)F)c4)n3n2)CC1 [SGI-1776] + N=C(N)NC(=N)NCCc1ccccc1 [Phenformin] (partner 250 µM)
Method in brief: as §1

Entinostat + Palbociclib = compound: Nc1ccccc1NC(=O)c1ccc(CNC(=O)OCc2cccnc2)cc1 [Entinostat] + CC(=O)c1c(C)c2cnc(Nc3ccc(N4CCNCC4)cn3)nc2n(C2CCCC2)c1=O [Palbociclib] (partner 0.5 µM)
Method in brief: as §1

Entinostat + Dasatinib = compound: Nc1ccccc1NC(=O)c1ccc(CNC(=O)OCc2cccnc2)cc1 [Entinostat] + Cc1nc(Nc2ncc(C(=O)Nc3c(C)cccc3Cl)s2)cc(N2CCN(CCO)CC2)n1 [Dasatinib] (partner 0.075 µM)
Method in brief: as §1

UMC-11 was tested, and the relative viability ([1]; first compound 0.02 µM) was 0.733, the relative viability ([1]; first compound 0.06325 µM) was 0.809 and the relative viability ([1]; first compound 0.2 µM) was 0.572. It also gave a relative viability ([1]; first compound 0.6325 µM) of 0.706, a relative viability ([1]; first compound 2 µM) of 0.614 and a relative viability (SGI-1776 + Phenformin; first compound 0.08 µM) of 0.31. It also gave a relative viability (SGI-1776 + Phenformin; first compound 0.8 µM) of 0.322, a relative viability (SGI-1776 + Phenformin; first compound 2.53 µM) of 0.302 and a relative viability (SGI-1776 + Phenformin; first compound 8 µM) of 0.252. It also gave a relative viability (Entinostat + Palbociclib; first compound 0.02 µM) of 0.367, a relative viability (Entinostat + Palbociclib; first compound 0.06325 µM) of 0.338 and a relative viability (Entinostat + Palbociclib; first compound 0.2 µM) of 0.367. The relative viability (Entinostat + Palbociclib; first compound 0.6325 µM) was 0.274, the relative viability (Entinostat + Palbociclib; first compound 2 µM) was 0.202 and the relative viability (Entinostat + Dasatinib; first compound 0.02 µM) was 0.468. The relative viability (Entinostat + Dasatinib; first compound 0.06325 µM) was 0.478, the relative viability (Entinostat + Dasatinib; first compound 0.2 µM) was 0.399 and the relative viability (Entinostat + Dasatinib; first compound 0.6325 µM) was 0.193. The relative viability (Entinostat + Dasatinib; first compound 2 µM) was 0.17.
